In US6350585B1, “Reagent for assay of amylase isozyme activity” (priority 1998, dated 2002):

Columns and labels:
P-type amylase = molecular target: T1, P-type amylase (Homo sapiens, UniProt P04746); assay: P-type amylase activity assay of serum with reagent E; type: biochemical; conditions: for P-type amylase activity value / Blank, change in absorbance per minute: composition E; for P-type amylase activity value: potassium thiocyanate 140 mM; for Blank, change in absorbance per minute: distilled water as sample
T1 construct: Serum (1, 2 or 3); from tissue; host or cells: serum
T1 sequence (P04746 16-511): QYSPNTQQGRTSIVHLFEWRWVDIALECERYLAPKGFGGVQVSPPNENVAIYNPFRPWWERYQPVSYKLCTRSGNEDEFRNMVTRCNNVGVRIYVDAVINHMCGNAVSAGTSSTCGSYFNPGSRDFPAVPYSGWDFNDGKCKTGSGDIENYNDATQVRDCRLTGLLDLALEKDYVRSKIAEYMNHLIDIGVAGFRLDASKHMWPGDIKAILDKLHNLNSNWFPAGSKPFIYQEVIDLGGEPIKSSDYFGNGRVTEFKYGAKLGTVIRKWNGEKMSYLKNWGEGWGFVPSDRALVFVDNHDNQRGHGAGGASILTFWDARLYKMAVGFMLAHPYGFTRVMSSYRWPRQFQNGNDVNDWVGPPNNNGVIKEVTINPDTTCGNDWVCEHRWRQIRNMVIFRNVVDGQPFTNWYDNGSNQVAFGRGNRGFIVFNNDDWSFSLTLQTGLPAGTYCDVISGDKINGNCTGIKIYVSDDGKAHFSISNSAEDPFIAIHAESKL
Method: Good buffer (pH 6.2) 50 mM
S-type amylase inhibitory antibody 88E8 (manufactured by Roche Diagnostics K.K.) 15 mg/L
S-type amylase inhibitory antibody 66C7 (manufactured by Roche Diagnostics K.K.) 1.25 mg/L
Potassium thiocyanate 140 mM
(§1) Substrate (GalG2CNP (Example) or G3CNP (Comparative Example)) 2.6 mM
(1) Distilled water (blank)
Each of the above-mentioned reagents (0.05 mL) was added to the above reagent E (3 mL) and the mixtures were left standing at 37° C. for 3 minutes. Then, change in absorbance at 405 nm was assayed and change in absorbance per minute was calculated. The obtained change in absorbance was converted to P-type amylase activity value at this composition using the molecular extinction coefficient of CNP.

[1] = molecular target: T2, P-type amylase (Calibzyme P) (Homo sapiens, UniProt P04746); assay: amylase isozyme activity assay with sodium azide as activator, P-type amylase sample; type: biochemical; conditions: for Percent residual enzyme activity: composition C/D
T2 construct: purchased International Reagents Corporation Calibzyme P
T2 sequence (P04746 16-511): T1 sequence (P04746 16-511)
Method: S-type amylase inhibitory antibody 88E8 (manufactured by Roche Diagnostics K.K.) 20 mg/L
S-type amylase inhibitory antibody 66C7 (manufactured by Roche Diagnostics K.K.) 5 mg/L
as §1
(2) P-type Amylase (Calibzyme P, Manufactured by International Reagents Corporation)
Each of the above-mentioned samples (0.05 mL) was added to respective reagent C and D (3 mL) and the mixtures were left standing at 37° C. for 3 minutes. Then, change in absorbance at 405 nm was assayed and change in absorbance per minute was calculated.
In the Tables, P is the case where P-type amylase was used as the sample, and S is the case where S-type amylase was used. The relative sensitivity of P and S is based on the change in absorbance of G3CNP as 100, wherein sodium azide was 300 mM.
Percent residual enzyme activity and relative sensitivity were calculated by the following formulas.
Percent residual enzyme activity (%)=(change in absorbance of composition C)/(change in absorbance of composition D)×100
Relative sensitivity (%)=(change in absorbance of composition D)/(change in absorbance of Comparative Example wherein sodium azide was 300 mM)×100

[2] = sodium azide 0 mM, G3CNP at 300 mM = 100
[3] = sodium azide 30 mM, G3CNP at 300 mM = 100
[4] = sodium azide 60 mM, G3CNP at 300 mM = 100
[5] = sodium azide 90 mM, G3CNP at 300 mM = 100
[6] = sodium azide 120 mM, G3CNP at 300 mM = 100
[7] = sodium azide 150 mM, G3CNP at 300 mM = 100
[8] = sodium azide 200 mM, G3CNP at 300 mM = 100
[9] = sodium azide 250 mM, G3CNP at 300 mM = 100
[10] = sodium azide 300 mM, G3CNP at 300 mM = 100

O=[N+]([O-])c1ccc(O[C@H]2O[C@H](CO)[C@@H](O[C@H]3O[C@H](CO)[C@@H](O[C@H]4O[C@H](CO)[C@@H](O)[C@H](O)[C@H]4O)[C@H](O)[C@H]3O)[C@H](O)[C@H]2O)c(Cl)c1 [Example G3CNP, 2-chloro-4-nitrophenylmaltotrioside, reference compound]
P-type amylase activity value (P-type amylase; Serum 1): 16.8 IU/L
P-type amylase activity value (P-type amylase; Serum 2): 106.3 IU/L
P-type amylase activity value (P-type amylase; Serum 3): 80.9 IU/L
Blank, change in absorbance per minute (P-type amylase): 0.0006 ABS/min
Change in absorbance, Containing Antibody (Composition C) ([1]; sodium azide 0 mM): 9.4 mABS/min
Change in absorbance, Without antibody (Composition D) ([1]; sodium azide 0 mM): 9.4 mABS/min
Relative sensitivity [1, 2]: 20.6%
Percent residual enzyme activity ([1]; sodium azide 0 mM): 100.0%
Change in absorbance, Containing Antibody (Composition C) ([1]; sodium azide 30 mM): 19.8 mABS/min
Change in absorbance, Without antibody (Composition D) ([1]; sodium azide 30 mM): 20.5 mABS/min
Relative sensitivity [1, 3]: 45.0%
Relative sensitivity ([1]; sodium azide 30 mM, G3CNP at 300 mM = 100, listed as Comparative Example 2): about 45%
Percent residual enzyme activity ([1]; sodium azide 30 mM): 96.6%
Change in absorbance, Containing Antibody (Composition C) ([1]; sodium azide 60 mM): 26.3 mABS/min
Change in absorbance, Without antibody (Composition D) ([1]; sodium azide 60 mM): 26.0 mABS/min
Relative sensitivity [1, 4]: 57.0%
Percent residual enzyme activity ([1]; sodium azide 60 mM): 101.2%
Change in absorbance, Containing Antibody (Composition C) ([1]; sodium azide 90 mM): 31.8 mABS/min
Change in absorbance, Without antibody (Composition D) ([1]; sodium azide 90 mM): 32.0 mABS/min
Relative sensitivity [1, 5]: 70.2%
Percent residual enzyme activity ([1]; sodium azide 90 mM): 99.4%
Change in absorbance, Containing Antibody (Composition C) ([1]; sodium azide 120 mM): 35.3 mABS/min
Change in absorbance, Without antibody (Composition D) ([1]; sodium azide 120 mM): 33.7 mABS/min
Relative sensitivity [1, 6]: 73.9%
Percent residual enzyme activity ([1]; sodium azide 120 mM): 104.7%
Change in absorbance, Containing Antibody (Composition C) ([1]; sodium azide 150 mM): 37.5 mABS/min
Change in absorbance, Without antibody (Composition D) ([1]; sodium azide 150 mM): 37.1 mABS/min
Relative sensitivity [1, 7]: 81.4%
Percent residual enzyme activity ([1]; sodium azide 150 mM): 101.1%
Change in absorbance, Containing Antibody (Composition C) ([1]; sodium azide 200 mM): 40.9 mABS/min
Change in absorbance, Without antibody (Composition D) ([1]; sodium azide 200 mM): 41.3 mABS/min
Relative sensitivity [1, 8]: 90.6%
Percent residual enzyme activity ([1]; sodium azide 200 mM): 99.0%
Change in absorbance, Containing Antibody (Composition C) ([1]; sodium azide 250 mM): 43.6 mABS/min
Change in absorbance, Without antibody (Composition D) ([1]; sodium azide 250 mM): 42.8 mABS/min
Relative sensitivity [1, 9]: 93.9%
Percent residual enzyme activity ([1]; sodium azide 250 mM): 101.9%
Change in absorbance, Containing Antibody (Composition C) ([1]; sodium azide 300 mM): 45.4 mABS/min
Change in absorbance, Without antibody (Composition D) ([1]; sodium azide 300 mM): 45.6 mABS/min
Relative sensitivity [1, 10]: 100.0%
Percent residual enzyme activity ([1]; sodium azide 300 mM): 99.6%

O=[N+]([O-])c1ccc(O[C@H]2O[C@H](CO)[C@@H](O[C@H]3O[C@H](CO)[C@@H](O[C@@H]4O[C@H](CO)[C@H](O)[C@H](O)[C@H]4O)[C@H](O)[C@H]3O)[C@H](O)[C@H]2O)c(Cl)c1 [GalG2CNP, 2-chloro-4-nitrophenyl 4-O-β-D-galactopyranosylmaltoside]
P-type amylase activity value (P-type amylase; Serum 1): 32.3 IU/L
P-type amylase activity value (P-type amylase; Serum 2): 205.0 IU/L
P-type amylase activity value (P-type amylase; Serum 3): 156.8 IU/L
sensitivity (change in absorbance) compared with Comparative Example (P-type amylase; Table 5, serum samples): superior sensitivity
Blank, change in absorbance per minute (P-type amylase): 0.0004 ABS/min
Change in absorbance, Containing Antibody (Composition C) ([1]; sodium azide 0 mM): 26.4 mABS/min
Change in absorbance, Without antibody (Composition D) ([1]; sodium azide 0 mM): 26.3 mABS/min
Relative sensitivity [1, 2]: 57.7%
Percent residual enzyme activity ([1]; sodium azide 0 mM): 100.4%
Change in absorbance, Containing Antibody (Composition C) ([1]; sodium azide 30 mM): 43.6 mABS/min
Change in absorbance, Without antibody (Composition D) ([1]; sodium azide 30 mM): 44.6 mABS/min
Relative sensitivity [1, 3]: 97.8%
Relative sensitivity ([1]; sodium azide 30 mM, G3CNP at 300 mM = 100, listed as Example): about 98%
Percent residual enzyme activity ([1]; sodium azide 30 mM): 97.8%
Change in absorbance, Containing Antibody (Composition C) ([1]; sodium azide 60 mM): 52.5 mABS/min
Change in absorbance, Without antibody (Composition D) ([1]; sodium azide 60 mM): 52.8 mABS/min
Relative sensitivity [1, 4]: 115.8%
Percent residual enzyme activity ([1]; sodium azide 60 mM): 99.4%
Change in absorbance, Containing Antibody (Composition C) ([1]; sodium azide 90 mM): 60.1 mABS/min
Change in absorbance, Without antibody (Composition D) ([1]; sodium azide 90 mM): 59.6 mABS/min
Relative sensitivity [1, 5]: 130.7%
Percent residual enzyme activity ([1]; sodium azide 90 mM): 100.8%
Change in absorbance, Containing Antibody (Composition C) ([1]; sodium azide 120 mM): 64.9 mABS/min
Change in absorbance, Without antibody (Composition D) ([1]; sodium azide 120 mM): 63.4 mABS/min
Relative sensitivity [1, 6]: 139.0%
Percent residual enzyme activity ([1]; sodium azide 120 mM): 102.4%
Change in absorbance, Containing Antibody (Composition C) ([1]; sodium azide 150 mM): 68.2 mABS/min
Change in absorbance, Without antibody (Composition D) ([1]; sodium azide 150 mM): 68.4 mABS/min
Relative sensitivity [1, 7]: 150.0%
Percent residual enzyme activity ([1]; sodium azide 150 mM): 99.7%
Change in absorbance, Containing Antibody (Composition C) ([1]; sodium azide 200 mM): 72.2 mABS/min
Change in absorbance, Without antibody (Composition D) ([1]; sodium azide 200 mM): 70.1 mABS/min
Relative sensitivity [1, 8]: 153.7%
Percent residual enzyme activity ([1]; sodium azide 200 mM): 103.0%
Change in absorbance, Containing Antibody (Composition C) ([1]; sodium azide 250 mM): 74.4 mABS/min
Change in absorbance, Without antibody (Composition D) ([1]; sodium azide 250 mM): 72.4 mABS/min
Relative sensitivity [1, 9]: 158.8%
Percent residual enzyme activity ([1]; sodium azide 250 mM): 102.8%
Change in absorbance, Containing Antibody (Composition C) ([1]; sodium azide 300 mM): 76.8 mABS/min
Change in absorbance, Without antibody (Composition D) ([1]; sodium azide 300 mM): 75.6 mABS/min
Relative sensitivity [1, 10]: 165.8%
Percent residual enzyme activity ([1]; sodium azide 300 mM): 101.6%
